Results from ChEMBL document CHEMBL1131290, “Studies of structure-activity relationship of nitroxide free radicals and their precursors as modifiers against oxidative damage” (1998).

Tests used:
V79 [1] = details: Cricetulus griseus
V79 [2] = details: Cricetulus griseus; remark: listed apart in the source
[3] = Mean surviving fraction of V79 cells following a 12-Gy dose of radiation.; type: functional, Cricetulus griseus
[4] = Mean surviving fraction of V79 cells following a 1-h exposure to H2O2.; type: functional, Cricetulus griseus

| SMILES | H2O2 prot (V79 [1]) | Radiation prot (V79 [2]) | Radiation prot [3] | H2O2 prot [4] |
| --- | --- | --- | --- | --- |
| CCOCC1=CC(C)(C)N([O])C1(C)C | 1.3 | – | – | – |
| CC1(C)C=C(CCNC(=N)N)C(C)(C)N1[O] | – | 1 | – | – |
| CC1(C)CC(CO)C(C)(C)N1[O] (stereo not drawn) | 1.1 | 4.7 | – | – |
| CN(C)CC1=CC(C)(C)N(O)C1(C)C | – | – | 16 | – |
| CC1(C)C=C(C(=O)NCCCN)C(C)(C)N1O | – | – | – | 1 |
| CC1=[N+]([O-])C(C)(C)CC1 | – | – | 1.1 | 0.8 |
| CC1(C)CC(O)CC(C)(C)N1[O] [TEMPOL] | – | – | 5.1 | 2.5 |
| CC1(C)CC(N2C(=O)c3ccccc3C2=O)CC(C)(C)N1O | – | – | – | 1.5 |
| CC1(C)C=C(C(=O)NCC(=O)O)C(C)(C)N1[O] | 0.9 | 0.98 | – | – |
| CC1(C)C=C(C=O)C(C)(C)N1[O] | 1.3 | 2.7 | – | – |
| CC1(C)C=C(C=O)C(C)(C)N1O | – | – | 0.13 | 2.7 |
| CN(CC1=CC(C)(C)N([O])C1(C)C)Cc1ccccc1 | 2 | – | – | – |
| CC1(C)C=C(CNC23CC4CC(CC(C4)C2)C3)C(C)(C)N1O | – | – | 1.8 | 2.5 |
| CCOCC1=CC(C)(C)N(O)C1(C)C | – | – | – | 3.2 |
| CC1(C)CC(=O)CC(C)(C)N1 | – | – | 1.1 | 0.5 |
| CC1(C)CC(N)CC(C)(C)N1O | – | – | 1.1 | 1 |
| CCN(CC)CC1=CC(C)(C)N(O)C1(C)C | – | – | 0.96 | – |
| CC1(C)C=C(CC[Se]C(=N)N)C(C)(C)[NH+]1[O-] (stereo not drawn) | – | – | – | 1.3 |
| CC1(C)CC(=O)CC(C)(C)N1O | – | – | 0.68 | – |
| CC1(C)CC(N)CC(C)(C)N1[O] [TEMPAMINE] | – | – | 18.5 | 2.8 |
| CC1(C)C=C(CN2CCCC2)C(C)(C)N1 | – | – | 0.34 | 1 |
| CN(CC1=CC(C)(C)N([O])C1(C)C)C12CC3CC(CC(C3)C1)C2 | 3.3 | – | – | – |
| CC1(C)C=C(C(N)=O)C(C)(C)N1[O] | 1 | 10.7 | – | – |

| SMILES | H2O2 prot (V79 [1]) | Radiation prot (V79 [2]) | Radiation prot [3] | H2O2 prot [4] |
| --- | --- | --- | --- | --- |
| CC(=O)NC1CC(C)(C)N(O)C(C)(C)C1 | – | – | 0.85 | 1.8 |
| CC[N+](CC)(CC)CC1=CC(C)(C)N([O])C1(C)C | – | 1.2 | – | – |
| CC1(C)CC(O)CC(C)(C)N1O [TEMPOL HYDROXYLAMINE] | – | – | 1.05 | – |
| CC1(C)C=C(CCSC(=N)N)C(C)(C)N1[O] | 2.2 | 7.5 | – | – |
| CC1(C)C=C(CN2C(=O)c3ccccc3C2=O)C(C)(C)N1O | – | – | 0.49 | 3.3 |
| CC1(C)C=C(CN2CCCCC2)C(C)(C)N1 | – | – | 0.95 | – |
| CC(C)(C)NCC1=CC(C)(C)N([O])C1(C)C | 2 | 19.3 | – | – |
| CC1(C)C=C(CO)C(C)(C)N1 | – | – | 1.5 | 0.9 |
| CC1(C)CC(N2C(=O)c3ccccc3C2=O)CC(C)(C)N1 | – | – | 1.7 | 0.8 |
| CC(C)(C)NCC1=CC(C)(C)N(O)C1(C)C | – | – | 1.2 | 2.1 |
| CC1(C)CC(=O)CC(C)(C)N1[O] | – | – | 7.1 | 1.1 |
| CC1(C)CC(C(=O)O)C(C)(C)N1[O] (stereo not drawn) | – | – | – | 1 |
| CC1(C)CC(N)C(C)(C)N1[O] (stereo not drawn) | – | – | 12.9 | 1.1 |
| CC1(C)C=C(C=O)C(C)(C)N1 | – | – | 0.07 | 0.9 |
| CC1(C)C=C(CNCc2ccccc2)C(C)(C)N1[O] | 2 | 5.2 | – | – |
| CC1(C)CC(NS(C)(=O)=O)CC(C)(C)N1O | – | – | 0.77 | – |
| CC1(C)C=C(C=O)CC(C)(C)N1 | – | – | 0.4 | – |
| CC1(C)C=C(C(=O)O)C(C)(C)N1[O] | – | – | – | 1 |
| CC(=O)C1=CC(C)(C)NC1(C)C | – | – | 0.63 | 1.3 |
| CC(=O)C1=CC(C)(C)N([O])C1(C)C | – | – | 4.8 | – |
| CC1(C)C=C(C(=O)NCCCO)C(C)(C)N1[O] | 1.1 | – | – | – |
| CC1(C)C=C(CN2CCCC2)C(C)(C)N1O | – | – | 28.3 | – |
| CCCCN(CCCC)CC1=CC(C)(C)N([O])C1(C)C | 3.2 | – | – | – |

| SMILES | H2O2 prot (V79 [1]) | Radiation prot (V79 [2]) | Radiation prot [3] | H2O2 prot [4] |
| --- | --- | --- | --- | --- |
| CCCCNCC1=CC(C)(C)N([O])C1(C)C | 2.5 | 3.96 | – | – |
| CC1(C)C=C(NC(N)=O)C(C)(C)N1[O] | 1.2 | – | – | – |
| CC1(C)C=C(CNC23CC4CC(CC(C4)C2)C3)C(C)(C)N1[O] | 3.3 | – | – | – |
| CC(=O)C1=CC(C)(C)N(O)C1(C)C | – | – | 0.15 | 2.7 |
| CC1(C)C=C(CN2Cc3ccccc3C2)C(C)(C)N1[O] | – | 3.9 | – | – |
| CC1(C)C=C(CO)C(C)(C)N1[O] | 1.8 | 2.6 | – | – |
| CC1(C)C=C(CN2CCCCC2)C(C)(C)N1[O] | – | 19.1 | – | – |
| CC1(C)CC(O)CC(C)(C)N1 | – | – | 0.9 | 0.4 |
| CC1(C)C=C(C(=O)NCCCN2C(=O)c3ccccc3C2=O)C(C)(C)N1O | – | – | 1.3 | 2.2 |
| CC1(C)C=C(CN2CCCC2)C(C)(C)N1[O] | – | 21.4 | – | – |
| CC1(C)CC(C(N)=O)C(C)(C)N1[O] (stereo not drawn) | – | – | 11.2 | 1.7 |
| CC1(C)C=C(C(=O)NCCCN)C(C)(C)N1[O] | 1.1 | – | – | – |
| CC1(C)CC(C(=O)NCCCN2C(=O)c3ccccc3C2=O)C(C)(C)N1O (stereo not drawn) | – | – | 1.26 | – |
| CC1(C)CC(=O)C(C)(C)N1O | – | – | 1 | 1.1 |
| CCOC1CC(C)(C)N(O)C(C)(C)C1 | – | – | – | 1.6 |
| CN(C)CC1=CC(C)(C)N([O])C1(C)C | 2.1 | 13.9 | – | – |
| CC1(C)C=C(CNC23CC4CC(CC(C4)C2)C3)C(C)(C)N1 | – | – | 1.4 | 1.9 |
| CCN(CC)CC1=CC(C)(C)N([O])C1(C)C | – | 17.2 | – | – |
| CC1(C)CC(NC2CC(C)(C)N(O)C(C)(C)C2)CC(C)(C)N1O.Cl | – | – | 1.4 | 1.9 |
| COC(=O)C1=CC(C)(C)N([O])C1(C)C | 1.5 | 0.94 | – | – |
| CC1(C)C=C(CN2CCCCC2)C(C)(C)N1O | – | – | 30 | – |
| CC1(C)CC(=O)C(C)(C)N1[O] | 0.9 | 10.2 | – | – |
| CC1(C)C=C(CNC2CCCCC2)C(C)(C)N1[O] | – | 4.4 | – | – |

| SMILES | H2O2 prot (V79 [1]) | Radiation prot (V79 [2]) | Radiation prot [3] | H2O2 prot [4] |
| --- | --- | --- | --- | --- |
| CN(CC1=CC(C)(C)N(O)C1(C)C)C12CC3CC(CC(C3)C1)C2 | – | – | – | 2.6 |
| CN(C)CC1=CC(C)(C)NC1(C)C | – | – | 0.95 | – |
| CC1(C)C=C(C(=O)NCCCN)C(C)(C)N1 | – | – | 0.52 | – |
| CC1(C)CC(CN)C(C)(C)N1[O] (stereo not drawn) | – | – | 13.7 | 0.7 |
| CCCCN(CCCC)C1CC(C)(C)N([O])C(C)(C)C1 | 2.9 | – | – | – |
| CC1(C)CCCC(C)(C)N1[O] | – | – | 4.2 | 3.5 |
| CC1=[N+]([O-])C(C)CC1 (stereo not drawn) | – | – | 0.91 | 1.1 |
| CC1(C)CCC(C)(C)N1[O] | – | – | 4.6 | 0.9 |
| CN(C)CCCNC(=O)C1=CC(C)(C)N([O])C1(C)C | – | 15 | – | – |
| CC1(C)CCC=[N+]1[O-] | – | – | 0.93 | 0.9 |
| CC1(C)C=C(C[P+](c2ccccc2)(c2ccccc2)c2ccccc2)C(C)(C)N1[O] | – | 0.72 | – | – |
| CCOC1CC(C)(C)N([O])C(C)(C)C1 | 1.9 | – | – | – |
| CC1(C)C=C(C(=O)NCCCN2C(=O)c3ccccc3C2=O)C(C)(C)N1 | – | – | 1.9 | 1.1 |
| CC1(C)CC(O)C(C)(C)N1[O] (stereo not drawn) | 1.4 | 2.9 | – | – |
| CC1(C)C=C(CNC23CC4CC(CC(C4)C2)C3)CC(C)(C)N1O | – | – | – | 2.1 |
| CC1(C)C=C(C(=O)NCCO)C(C)(C)N1[O] | 1.2 | – | – | – |
| CCCC[N+](CCCC)(CCCC)CC1=CC(C)(C)N([O])C1(C)C | 1.1 | 0.69 | – | – |
| CC1(C)C=C(C=O)CC(C)(C)N1O | – | – | 1.5 | – |
| CC1(C)C=C(C=O)CC(C)(C)N1[O] | 0.8 | 6.1 | – | – |
| CC1(C)C=C(CO)C(C)(C)N1O | – | – | 0.92 | 3.1 |
| CN1C(C)(C)C=C(C=O)C1(C)C | – | – | 0.6 | – |
| CC1(C)CCCC(C)(C)N1O | – | – | 0.68 | 1.5 |
